Results reported in patent EP1853270B1, “PHARMACEUTICAL COMPOSITIONS COMPRISING NEP-INHIBITORS, INHIBITORS OF THE ENDOGENOUS ENDOTHELIN PRODUCING SYSTEM AND DIURETICS” (Solvay Pharmaceuticals GmbH, priority 2005, dated 2006).

Tested on: spontaneously hypertensive rat
Assay: Telemetric monitoring of blood pressure and heart rate in spontaneously hypertensive rats, compounds given via drinking water
Assay type: in vivo
Conditions: male SHR; for DBP: group mean change of 24 h mean diastolic blood pressure; for DBP / HR / SBP: day 23 (3 weeks of treatment) minus baseline (day 3), via drinking water, intended 10 mg/kg/day hydrochlorothiazide and/or 100 mg/kg/day daglutril, n=5 per group; for HR: group mean change of 24 h mean heart rate; for SBP: group mean change of 24 h mean systolic blood pressure; for effect on blood pressure: result in words, 3 weeks of treatment via drinking water, difference between groups significant (ANOVA, at least P<0.01)
Text: Male spontaneously hypertensive rats (= SHR, insulin resistant strain from Charles River; aged 6 months) were equipped with telemetry transmitters for continuous monitoring of blood pressure and heart rate (TA11PA-C40. DSI, USA). Telemetry transmitters for continuous monitoring of blood pressure, heart rate and locomotor activity (TA11PA-C40, Data Sciences, USA) were implanted intraabdominally under inhalative halothane anesthesia. A midline abdominal incision was made, and the abdominal aorta was visualized by removal of retroperitoneal fat and connective tissue. A ligature was placed caudal of the renal arteries, the aorta was punctured with a 22G needle, and the catheter was advanced into the aorta. The entry point was sealed with tissue adhesive (Vetbond, 3M, USA), the ligature was removed, and the abdominal incision was closed. Measurements of aortic pressure were taken every 5 minutes (= min) for 4 seconds (= s) each at a sampling rate of 500 Hz, and were corrected for the corresponding ambient pressure (ambient pressure monitor, C11 PR, Data Sciences, USA).
After 3 days of monitoring under baseline (untreated) conditions, animals received daglutril via the drinking water. The intended daily dose was 100 mg/kg/day of daglutril.
In a second experiment, rats were divided into two treatment groups receiving hydrochlorothiazide or hydrochlorothiazide + daglutril. Compounds were administered via the drinking water, and daily drug intake was measured by weighing the water bottles thrice weekly. Intended daily doses were 10 mg/kg/day of hydrochlorothiazide plus, in the combination group, 100 mg/kg/day of daglutril.
Concentrations of hydrochlorothiazide and daglutril in the drinking water were adjusted once per week, in order to ensure the intended daily intake of 10 and 100 mg/kg, respectively.
The blood pressure, heart rate and activity values, sampled in 5 min intervals by the Dataquest™ system, were used for calculation of individual 24 hours (= h) -means. These 24 h means were exported to Excel, and group mean values of systolic blood pressure (= SBP), diastolic blood pressure (= DBP), heart rate (= HR), and locomotor activity (= ACT) were calculated for the daglutril, hydrochlorothiazide and the hydrochlorothiazide + daglutril groups. For the statistical analysis, a baseline value (pre) was calculated from the last day prior to compound application (day 3), and effects of daglutril, hydrochlorothiazide and hydrochlorothiazide + daglutril were calculated in relation to this baseline value (day 23, i.e. after 3 weeks of treatment, minus baseline value). The statistical comparison was done by using univariate ANOVA at an error level of P<0.05.

Structure (SMILES) | DBP [mmHg] | HR [min⁻¹] | SBP [mmHg] | effect on blood pressure
NS(=O)(=O)c1cc2c(cc1Cl)NCNS2(=O)=O [HCTZ, hydrochlorothiazide] | -7.7 | -4.5 | -11.3 | moderate decrease in blood pressure
CCOC(=O)[C@H](CCc1ccccc1)CC1(C(=O)N[C@H]2CCc3ccccc3N(CC(=O)O)C2=O)CCCC1 [daglutril] | 2.0 | -6.0 | -0.3 | no effect on blood pressure
